Experimental data taken from ChEMBL document CHEMBL1201862, “PubChem BioAssay data set” (2004).
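Interpolation was linear, between the two tested concentrations surrounding the appropriate level; five concentrations were tested over 48 hours in 96-well plates. GI50 = concentration required for 50% inhibition of growth.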 The source made the active and inactive calls. Rule as the data show it: active = GI50 up to about 1.1 µM and inactive = higher.

What was measured:
Test in all cases: NCI anticancer screen, dose series, 48 h
786-0 = system: 786-0
A498 = system: A498
ACHN = system: ACHN
CAKI-1 = system: CAKI-1
COLO 205 = system: COLO 205
IGROV-1 = system: IGROV-1
M14 = system: M14
MDA-MB-231 = system: MDA-MB-231
MDA-MB-435 = system: MDA-MB-435
NCI-H460 = system: NCI-H460
NCI/ADR-RES = system: NCI/ADR-RES
OVCAR-3 = system: OVCAR-3
OVCAR-4 = system: OVCAR-4
PC-3 = system: PC-3
RXF 393 = system: RXF 393
SK-MEL-28 = system: SK-MEL-28
SK-MEL-2 = system: SK-MEL-2
SNB-75 = system: SNB-75
KM12 = system: KM12
SR = system: SR

Row | SMILES | GI50 (786-0) | GI50 (A498) | GI50 (ACHN) | GI50 (CAKI-1) | GI50 (COLO 205) | GI50 (IGROV-1) | GI50 (M14) | GI50 (MDA-MB-231) | GI50 (MDA-MB-435) | GI50 (NCI-H460) | GI50 (NCI/ADR-RES) | GI50 (OVCAR-3) | GI50 (OVCAR-4) | GI50 (PC-3) | GI50 (RXF 393) | GI50 (SK-MEL-28) | GI50 (SK-MEL-2) | GI50 (SNB-75) | GI50 (KM12) | GI50 (SR)
1 | O=C(CCCc1ccccn1)c1ccccc1 | > 100 µM (inactive) | > 100 µM (inactive) | > 100 µM (inactive) | > 100 µM (inactive) | > 100 µM (inactive) | > 100 µM (inactive) | > 100 µM (inactive) | > 100 µM (inactive) | > 100 µM (inactive) | > 100 µM (inactive) | > 100 µM (inactive) | > 100 µM (inactive) | > 100 µM (inactive) | > 100 µM (inactive) | > 100 µM (inactive) | > 100 µM (inactive) | > 100 µM (inactive) | > 100 µM (inactive) |  | 
2 | C/C=C(/C)c1cnc(CC(C)C)c(=O)[nH]1 | > 100 µM (inactive) | > 100 µM (inactive) | > 100 µM (inactive) | > 100 µM (inactive) | > 100 µM (inactive) | > 100 µM (inactive) |  | > 100 µM (inactive) | > 100 µM (inactive) | > 100 µM (inactive) |  | > 100 µM (inactive) | > 100 µM (inactive) | > 100 µM (inactive) | > 100 µM (inactive) | > 100 µM (inactive) | > 100 µM (inactive) | > 100 µM (inactive) | > 100 µM (inactive) | > 100 µM (inactive)
3 | Clc1ccc(Cl)c(SCCCN2CCNCC2)c1 | 20.1 µM (inactive) | 13.7 µM (inactive) | 15.1 µM (inactive) | 17.8 µM (inactive) | 16.2 µM (inactive) | 18.2 µM (inactive) | 17.3 µM (inactive) | 15 µM (inactive) | 14 µM (inactive) | 18.4 µM (inactive) | 17.3 µM (inactive) | 19.2 µM (inactive) | 20.6 µM (inactive) | 14.6 µM (inactive) | 14.4 µM (inactive) | 10.4 µM (inactive) |  | 13.4 µM (inactive) | 25.5 µM (inactive) | 
4 | COc1ccc(NC(C)=O)cc1C1CCC(=O)N1 (configuration not stated) | > 100 µM (inactive) | > 100 µM (inactive) | > 100 µM (inactive) | > 100 µM (inactive) | > 100 µM (inactive) | > 100 µM (inactive) | > 100 µM (inactive) | > 100 µM (inactive) | > 100 µM (inactive) | > 100 µM (inactive) | > 100 µM (inactive) | > 100 µM (inactive) | > 100 µM (inactive) | > 100 µM (inactive) |  | > 100 µM (inactive) | > 100 µM (inactive) | > 100 µM (inactive) | > 100 µM (inactive) | 
5 | O=C1c2ccccc2C(=O)c2c1ccc(C1C(=O)c3ccccc3C1=O)c2-c1c(C2C(=O)c3ccccc3C2=O)ccc2c1C(=O)c1ccccc1C2=O | > 100 µM (inactive) | > 100 µM (inactive) | > 100 µM (inactive) | > 100 µM (inactive) | > 100 µM (inactive) | > 100 µM (inactive) | > 100 µM (inactive) | 47.3 µM (inactive) | > 100 µM (inactive) | > 100 µM (inactive) | > 100 µM (inactive) | > 100 µM (inactive) | > 100 µM (inactive) | > 100 µM (inactive) | > 100 µM (inactive) | > 100 µM (inactive) | > 100 µM (inactive) | > 100 µM (inactive) | > 100 µM (inactive) | 
6 | O=C1c2cc([N+](=O)[O-])cc3cc([N+](=O)[O-])cc(c23)C(=O)N1CCCNCCNCCCN1C(=O)c2cc([N+](=O)[O-])cc3cc([N+](=O)[O-])cc(c23)C1=O | 0.0879 µM (active) | 0.769 µM (active) | 0.0296 µM (active) | 0.182 µM (active) | 0.041 µM (active) | 0.0301 µM (active) | 0.384 µM (active) | 0.414 µM (active) | 0.975 µM (active) | 0.0169 µM (active) | 1.34 µM (inactive) | 0.0897 µM (active) | 0.178 µM (active) | 0.376 µM (active) | 0.0317 µM (active) | 0.233 µM (active) | 0.124 µM (active) | 0.308 µM (active) | 0.0582 µM (active) | 
7 | NCCCCN(CCCN)Cc1ccc2ccccc2c1 | 34.2 µM (inactive) | 20.7 µM (inactive) | 22.8 µM (inactive) | 13.8 µM (inactive) | 35.2 µM (inactive) | 25.2 µM (inactive) | 57 µM (inactive) | 32.4 µM (inactive) | > 100 µM (inactive) | 15.7 µM (inactive) | > 100 µM (inactive) |  | 39.4 µM (inactive) |  | 63.4 µM (inactive) | > 100 µM (inactive) |  | 2.94 µM (inactive) | 27.4 µM (inactive) | 
8 | NCc1ccc(-c2ccc(CN)s2)s1 | > 100 µM (inactive) | 1.22 µM (inactive) | > 100 µM (inactive) | > 100 µM (inactive) | 23 µM (inactive) | 10.9 µM (inactive) | > 100 µM (inactive) | > 100 µM (inactive) | > 100 µM (inactive) |  | 13.1 µM (inactive) | 42.3 µM (inactive) | > 100 µM (inactive) | > 100 µM (inactive) | > 100 µM (inactive) | > 100 µM (inactive) | > 100 µM (inactive) | > 100 µM (inactive) | > 100 µM (inactive) | 
9 | COc1cc(/C=N/c2ccc(Oc3ccc(Cl)cc3)c(Cl)c2)cc(OC)c1OC | 13.6 µM (inactive) |  | 29.1 µM (inactive) | 22.9 µM (inactive) | 17.2 µM (inactive) | 21.8 µM (inactive) | 23.3 µM (inactive) | 16.8 µM (inactive) | 28.2 µM (inactive) | 19.3 µM (inactive) | 22.9 µM (inactive) | 20 µM (inactive) | 19.4 µM (inactive) | 14.3 µM (inactive) |  | 21.3 µM (inactive) | 17.8 µM (inactive) | 23.7 µM (inactive) | 21.3 µM (inactive) | 26.9 µM (inactive)
10 | C[C@H]1CC[C@@H]2[C@@H](C)C[C@H]3[C@@H]4C(C)(C)OC(=O)[C@]4(C)C(=O)[C@@]23C1=O | > 100 µM (inactive) | > 100 µM (inactive) | > 100 µM (inactive) | > 100 µM (inactive) | > 100 µM (inactive) | > 100 µM (inactive) | > 100 µM (inactive) | 42.5 µM (inactive) | > 100 µM (inactive) | > 100 µM (inactive) | > 100 µM (inactive) | > 100 µM (inactive) | > 100 µM (inactive) |  |  | > 100 µM (inactive) |  | > 100 µM (inactive) | > 100 µM (inactive) | 
11 | Cc1ccc(-c2c(C#N)c(-c3ccc(Cl)cc3)c(C#N)c(=O)n2NS(=O)(=O)c2ccccc2)cc1 | 86.5 µM (inactive) | 86.7 µM (inactive) | 46.9 µM (inactive) | 37.2 µM (inactive) | > 100 µM (inactive) | 33 µM (inactive) | > 100 µM (inactive) | > 100 µM (inactive) | > 100 µM (inactive) | 44.4 µM (inactive) | 26.9 µM (inactive) |  | 37.2 µM (inactive) | 29.9 µM (inactive) | 32 µM (inactive) | > 100 µM (inactive) | 25.7 µM (inactive) | 47.5 µM (inactive) | 81.7 µM (inactive) | 
12 | CC(CCOc1c2ccoc2cc2oc(=O)ccc12)C1=CC(=O)C(C)(C)O1 (configuration not stated) | > 100 µM (inactive) |  | > 100 µM (inactive) | > 100 µM (inactive) | > 100 µM (inactive) | > 100 µM (inactive) | > 100 µM (inactive) | > 100 µM (inactive) | > 100 µM (inactive) | > 100 µM (inactive) | > 100 µM (inactive) | > 100 µM (inactive) | 42 µM (inactive) | > 100 µM (inactive) | > 100 µM (inactive) | > 100 µM (inactive) | > 100 µM (inactive) |  | > 100 µM (inactive) | > 100 µM (inactive)
13 | C[C@@H]1OC(=O)C[C@H]2CC(=O)N(CCC3CN(C(=O)OCc4ccccc4)c4ccccc43)C[C@@H]21 (some centres not stated) | > 100 µM (inactive) | > 100 µM (inactive) | > 100 µM (inactive) | > 100 µM (inactive) | > 100 µM (inactive) | > 100 µM (inactive) | > 100 µM (inactive) | > 100 µM (inactive) | > 100 µM (inactive) | > 100 µM (inactive) | > 100 µM (inactive) | > 100 µM (inactive) | > 100 µM (inactive) | > 100 µM (inactive) | > 100 µM (inactive) | > 100 µM (inactive) | > 100 µM (inactive) | > 100 µM (inactive) | > 100 µM (inactive) | 
14 | C[C@H]1[C@H](N2CCCC2)O[Si](C(C)(C)C)(C(C)(C)C)[C@@H]1C | > 100 µM (inactive) | > 100 µM (inactive) | 46.8 µM (inactive) | > 100 µM (inactive) | > 100 µM (inactive) | > 100 µM (inactive) | > 100 µM (inactive) | > 100 µM (inactive) | > 100 µM (inactive) |  | > 100 µM (inactive) | > 100 µM (inactive) | > 100 µM (inactive) | 99.5 µM (inactive) |  | > 100 µM (inactive) | > 100 µM (inactive) | 74.6 µM (inactive) | > 100 µM (inactive) | 
15 | C=CN(C=C)C(=O)Cn1cc(-c2ccccc2)nn1 | > 100 µM (inactive) |  | > 100 µM (inactive) | > 100 µM (inactive) | > 100 µM (inactive) | > 100 µM (inactive) | > 100 µM (inactive) | > 100 µM (inactive) | > 100 µM (inactive) | > 100 µM (inactive) | > 100 µM (inactive) |  | 31.1 µM (inactive) | > 100 µM (inactive) |  | > 100 µM (inactive) | > 100 µM (inactive) | > 100 µM (inactive) | > 100 µM (inactive) | > 100 µM (inactive)
